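Protocol summary: plate cells (96-well), add compound at 5 concentrations, incubate 48 h, interpolate endpoints linearly. TGI: concentration producing complete growth inhibition.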
How the values were obtained:
Assay in all cases: growth of human tumour cells (NCI), 48 h
[1] = system: EKVX NSCLC
[2] = system: ACHN renal
[3] = system: IGROV1 ovarian
[4] = system: MALME-3M melanoma
[5] = system: UACC-257 melanoma
[6] = system: HCT-116 colon
[7] = system: DMS 273 small cell lung
[8] = system: K-562 leukemia
[9] = system: OVCAR-4 ovarian
[10] = system: SN12C renal
[11] = system: DLD-1 colon
[12] = system: SF-268 CNS
[13] = system: SF-295 CNS
[14] = system: LOX IMVI melanoma
[15] = system: HT29 colon
[16] = system: NCI-H23 lung
[17] = system: OVCAR-3 ovarian
[18] = system: U251 CNS
[19] = system: SK-MEL-28 melanoma
[20] = system: UO-31 renal
[21] = system: HCC-2998 colon
[22] = system: SK-MEL-5 melanoma
[23] = system: MOLT-4 leukemia
[24] = system: HOP-62 NSCLC
[25] = system: UACC-62 melanoma
[26] = system: HOP-92 NSCLC
[27] = system: SK-OV-3 ovarian
[28] = system: OVCAR-8 ovarian
[29] = system: KM20L2 colon
[30] = system: SW-620 colon
[31] = system: M19-MEL melanoma
[32] = system: NCI-H522 lung
[33] = system: TK-10 renal
[34] = system: COLO 205 colon
[35] = system: SNB-75 CNS
[36] = system: KM12 colon
[37] = system: RPMI-8226 leukemia
[38] = system: SK-MEL-2 melanoma
[39] = system: CCRF-CEM leukemia
[40] = system: HCT-15 colon
[41] = system: A549 NSCLC
[42] = system: NCI-H460 lung
[43] = system: A498 renal
[44] = system: SNB-19 CNS
[45] = system: 786-0 renal
[46] = system: M14 melanoma
[47] = system: OVCAR-5 ovarian
[48] = system: LXFL 529 NSCLC
[49] = system: RXF 393 renal
[50] = system: DMS 114 small cell lung
[51] = system: NCI-H226 lung
[52] = system: SNB-78 CNS
[53] = system: SF-539 CNS
[54] = system: CAKI-1 renal
[55] = system: SR leukemia

Compound: Cc1cc2c(=O)cc(-c3cccs3)oc2c(C(=O)O)c1C
- TGI [1]: > 100 µM
- TGI [2]: > 100 µM
- TGI [3]: > 100 µM
- TGI [4]: > 100 µM
- TGI [5]: > 100 µM
- TGI [6]: > 100 µM
- TGI [7]: > 100 µM
- TGI [8]: > 100 µM
- TGI [9]: > 100 µM
- TGI [10]: > 100 µM
- TGI [11]: > 100 µM
- TGI [12]: > 100 µM
- TGI [13]: > 100 µM
- TGI [14]: > 100 µM
- TGI [15]: > 100 µM
- TGI [16]: > 100 µM
- TGI [17]: > 100 µM
- TGI [18]: > 100 µM
- TGI [19]: > 100 µM
- TGI [20]: > 100 µM
- TGI [21]: > 100 µM
- TGI [22]: > 100 µM
- TGI [23]: > 100 µM
- TGI [24]: > 100 µM
- TGI [25]: > 100 µM
- TGI [26]: > 100 µM
- TGI [27]: > 100 µM
- TGI [28]: > 100 µM
- TGI [29]: > 100 µM
- TGI [30]: > 100 µM
- TGI [31]: > 100 µM
- TGI [32]: 48.4 µM
- TGI [33]: > 100 µM
- TGI [34]: > 100 µM
- TGI [35]: 37.6 µM
- TGI [36]: > 100 µM
- TGI [37]: > 100 µM
- TGI [38]: > 100 µM
- TGI [39]: > 100 µM
- TGI [40]: > 100 µM
- TGI [41]: > 100 µM
- TGI [42]: > 100 µM
- TGI [43]: > 100 µM
- TGI [44]: > 100 µM
- TGI [45]: > 100 µM
- TGI [46]: > 100 µM
- TGI [47]: > 100 µM
- TGI [48]: > 100 µM

Compound: COc1ccc2c(c1)OCCCN(C)OC2c1ccccc1 (stereo not drawn)
- TGI [1]: > 100 µM
- TGI [2]: > 100 µM
- TGI [3]: > 100 µM
- TGI [4]: > 100 µM
- TGI [5]: > 100 µM
- TGI [49]: > 100 µM
- TGI [6]: > 100 µM
- TGI [50]: > 100 µM
- TGI [7]: > 100 µM
- TGI [8]: > 100 µM
- TGI [10]: > 100 µM
- TGI [12]: > 100 µM
- TGI [13]: > 100 µM
- TGI [15]: > 100 µM
- TGI [16]: > 100 µM
- TGI [17]: > 100 µM
- TGI [18]: > 100 µM
- TGI [19]: > 100 µM
- TGI [20]: > 100 µM
- TGI [21]: > 100 µM
- TGI [22]: > 100 µM
- TGI [23]: > 100 µM
- TGI [25]: > 100 µM
- TGI [27]: > 100 µM
- TGI [28]: > 100 µM
- TGI [29]: > 100 µM
- TGI [30]: > 100 µM
- TGI [31]: > 100 µM
- TGI [51]: > 100 µM
- TGI [33]: > 100 µM
- TGI [34]: > 100 µM
- TGI [52]: > 100 µM
- TGI [35]: > 100 µM
- TGI [36]: > 100 µM
- TGI [37]: > 100 µM
- TGI [53]: > 100 µM
- TGI [38]: > 100 µM
- TGI [40]: > 100 µM
- TGI [41]: > 100 µM
- TGI [54]: > 100 µM
- TGI [44]: > 100 µM
- TGI [45]: > 100 µM
- TGI [47]: > 100 µM
- TGI [48]: > 100 µM
- TGI [55]: > 100 µM
